Results published in ChEMBL document CHEMBL3991601, “The target landscape of clinical kinase drugs” (Science, 2017).
Where a name gives a salt, the structure may show the parent alone. Activity calls are given as the source filed them. Rule as the data show it, for most assays here: actives have a measured Kd and inactives only a lower limit.

Key:
[1] = biological target: AP2-associated protein kinase 1 (Homo sapiens, UniProt Q2M2I8)
[2] = biological target: T1, Serine/threonine-protein kinase Chk1 (Homo sapiens, UniProt O14757)
T1 sequence (O14757 whole entry): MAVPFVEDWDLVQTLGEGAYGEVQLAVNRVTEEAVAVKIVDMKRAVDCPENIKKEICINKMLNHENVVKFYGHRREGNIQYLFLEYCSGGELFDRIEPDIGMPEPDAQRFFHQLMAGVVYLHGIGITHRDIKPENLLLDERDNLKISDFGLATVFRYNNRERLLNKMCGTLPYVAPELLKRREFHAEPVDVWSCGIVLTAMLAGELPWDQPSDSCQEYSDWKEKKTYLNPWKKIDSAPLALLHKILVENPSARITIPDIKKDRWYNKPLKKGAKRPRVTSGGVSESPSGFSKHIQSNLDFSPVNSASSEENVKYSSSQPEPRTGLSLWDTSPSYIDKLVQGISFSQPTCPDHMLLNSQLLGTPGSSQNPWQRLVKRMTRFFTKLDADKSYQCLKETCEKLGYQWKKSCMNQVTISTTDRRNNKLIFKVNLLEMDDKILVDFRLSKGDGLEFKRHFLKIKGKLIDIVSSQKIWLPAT

[3] = biological target: Casein kinase I isoform delta (Homo sapiens, UniProt P48730)
Chain of Casein kinase I isoform delta (P48730 whole entry, canonical isoform): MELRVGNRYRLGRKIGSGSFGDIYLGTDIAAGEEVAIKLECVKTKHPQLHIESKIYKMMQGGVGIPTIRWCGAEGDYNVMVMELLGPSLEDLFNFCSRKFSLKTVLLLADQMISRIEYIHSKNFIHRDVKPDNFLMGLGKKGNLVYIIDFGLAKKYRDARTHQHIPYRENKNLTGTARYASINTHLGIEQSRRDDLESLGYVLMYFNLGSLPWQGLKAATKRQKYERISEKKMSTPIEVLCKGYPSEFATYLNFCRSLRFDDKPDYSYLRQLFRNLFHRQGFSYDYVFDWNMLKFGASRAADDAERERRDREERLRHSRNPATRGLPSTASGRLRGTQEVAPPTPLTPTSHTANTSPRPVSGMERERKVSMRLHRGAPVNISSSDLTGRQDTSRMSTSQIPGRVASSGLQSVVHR

[4] = biological target: Serine/threonine-protein kinase/endoribonuclease IRE1 (Homo sapiens, UniProt O75460)
Chain of Serine/threonine-protein kinase/endoribonuclease IRE1 (O75460 whole entry): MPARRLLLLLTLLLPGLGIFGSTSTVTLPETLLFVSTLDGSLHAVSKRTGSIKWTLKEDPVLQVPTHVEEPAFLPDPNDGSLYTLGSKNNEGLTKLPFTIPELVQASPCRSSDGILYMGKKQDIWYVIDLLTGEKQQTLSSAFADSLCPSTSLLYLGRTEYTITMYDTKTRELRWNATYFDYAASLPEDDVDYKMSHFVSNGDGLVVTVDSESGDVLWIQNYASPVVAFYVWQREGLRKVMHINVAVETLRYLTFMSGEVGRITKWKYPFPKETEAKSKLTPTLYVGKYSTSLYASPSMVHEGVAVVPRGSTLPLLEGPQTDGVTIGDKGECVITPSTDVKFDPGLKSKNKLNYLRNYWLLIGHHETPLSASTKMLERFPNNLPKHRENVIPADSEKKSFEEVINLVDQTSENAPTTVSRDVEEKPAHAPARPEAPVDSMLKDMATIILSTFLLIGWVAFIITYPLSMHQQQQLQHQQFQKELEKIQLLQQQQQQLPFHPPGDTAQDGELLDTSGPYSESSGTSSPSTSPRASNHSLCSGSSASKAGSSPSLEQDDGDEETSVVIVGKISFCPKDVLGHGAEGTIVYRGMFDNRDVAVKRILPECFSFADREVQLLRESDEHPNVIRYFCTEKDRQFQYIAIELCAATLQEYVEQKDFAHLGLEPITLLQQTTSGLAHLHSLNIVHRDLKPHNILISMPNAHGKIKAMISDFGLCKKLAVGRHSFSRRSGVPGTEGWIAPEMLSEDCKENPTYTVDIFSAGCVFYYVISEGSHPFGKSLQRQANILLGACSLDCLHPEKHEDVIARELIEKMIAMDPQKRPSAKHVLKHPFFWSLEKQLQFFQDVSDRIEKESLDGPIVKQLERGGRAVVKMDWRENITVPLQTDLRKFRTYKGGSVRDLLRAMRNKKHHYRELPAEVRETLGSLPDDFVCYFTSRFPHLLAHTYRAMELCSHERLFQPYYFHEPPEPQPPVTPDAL

[5] = biological target: T2, Serine/threonine-protein kinase Nek1 (Homo sapiens, UniProt Q96PY6)
T2 sequence (Q96PY6 whole entry): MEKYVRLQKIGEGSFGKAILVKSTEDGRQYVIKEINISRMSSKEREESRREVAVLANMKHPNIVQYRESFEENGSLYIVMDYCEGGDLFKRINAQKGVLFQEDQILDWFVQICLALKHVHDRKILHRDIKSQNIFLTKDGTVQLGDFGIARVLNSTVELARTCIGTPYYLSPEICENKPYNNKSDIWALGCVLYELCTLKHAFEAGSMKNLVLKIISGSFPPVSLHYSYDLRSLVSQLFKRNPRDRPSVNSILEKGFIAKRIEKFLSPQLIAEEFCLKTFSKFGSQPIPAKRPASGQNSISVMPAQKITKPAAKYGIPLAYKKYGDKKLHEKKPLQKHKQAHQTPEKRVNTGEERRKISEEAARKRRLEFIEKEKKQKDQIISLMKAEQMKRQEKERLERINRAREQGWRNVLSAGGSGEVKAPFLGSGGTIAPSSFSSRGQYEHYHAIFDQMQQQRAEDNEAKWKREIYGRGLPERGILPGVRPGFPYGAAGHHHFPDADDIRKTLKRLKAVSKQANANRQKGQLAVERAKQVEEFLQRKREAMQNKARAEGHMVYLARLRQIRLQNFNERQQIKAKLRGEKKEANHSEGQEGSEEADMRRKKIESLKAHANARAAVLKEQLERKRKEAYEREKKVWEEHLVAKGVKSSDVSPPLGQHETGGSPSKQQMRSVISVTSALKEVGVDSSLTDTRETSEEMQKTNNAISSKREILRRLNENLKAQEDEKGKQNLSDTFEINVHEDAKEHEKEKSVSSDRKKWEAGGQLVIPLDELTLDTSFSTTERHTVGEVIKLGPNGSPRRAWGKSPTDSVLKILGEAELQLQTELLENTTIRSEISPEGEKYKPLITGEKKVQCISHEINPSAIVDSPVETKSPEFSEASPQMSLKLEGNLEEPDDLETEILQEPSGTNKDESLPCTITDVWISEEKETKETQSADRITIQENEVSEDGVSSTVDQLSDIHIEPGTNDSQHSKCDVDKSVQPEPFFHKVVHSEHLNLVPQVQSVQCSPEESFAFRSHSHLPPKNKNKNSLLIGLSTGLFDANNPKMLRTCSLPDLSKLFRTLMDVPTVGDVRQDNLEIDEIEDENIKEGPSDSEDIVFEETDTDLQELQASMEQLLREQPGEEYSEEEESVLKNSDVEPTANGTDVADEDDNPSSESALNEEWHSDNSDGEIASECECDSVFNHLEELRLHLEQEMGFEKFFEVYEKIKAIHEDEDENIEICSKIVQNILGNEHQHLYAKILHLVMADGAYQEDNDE

Rab-like protein 3 = biological target: T3, Rab-like protein 3 (Homo sapiens, UniProt Q5HYI8)
T3 sequence (Q5HYI8 whole entry): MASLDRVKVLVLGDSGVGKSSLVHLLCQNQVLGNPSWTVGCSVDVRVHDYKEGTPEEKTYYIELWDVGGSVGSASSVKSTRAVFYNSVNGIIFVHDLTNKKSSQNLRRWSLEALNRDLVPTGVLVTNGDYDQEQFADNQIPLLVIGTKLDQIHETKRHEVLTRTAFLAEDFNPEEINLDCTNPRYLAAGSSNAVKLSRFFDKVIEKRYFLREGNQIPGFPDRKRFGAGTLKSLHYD

[6] = biological target: T4, General transcription and DNA repair factor IIH helicase subunit XPD (Homo sapiens, UniProt P18074); conditions: read-out: Kd apparent; k-562, colo 205, sk-n-be(2) and mv-4-11
T4 sequence (P18074 whole entry): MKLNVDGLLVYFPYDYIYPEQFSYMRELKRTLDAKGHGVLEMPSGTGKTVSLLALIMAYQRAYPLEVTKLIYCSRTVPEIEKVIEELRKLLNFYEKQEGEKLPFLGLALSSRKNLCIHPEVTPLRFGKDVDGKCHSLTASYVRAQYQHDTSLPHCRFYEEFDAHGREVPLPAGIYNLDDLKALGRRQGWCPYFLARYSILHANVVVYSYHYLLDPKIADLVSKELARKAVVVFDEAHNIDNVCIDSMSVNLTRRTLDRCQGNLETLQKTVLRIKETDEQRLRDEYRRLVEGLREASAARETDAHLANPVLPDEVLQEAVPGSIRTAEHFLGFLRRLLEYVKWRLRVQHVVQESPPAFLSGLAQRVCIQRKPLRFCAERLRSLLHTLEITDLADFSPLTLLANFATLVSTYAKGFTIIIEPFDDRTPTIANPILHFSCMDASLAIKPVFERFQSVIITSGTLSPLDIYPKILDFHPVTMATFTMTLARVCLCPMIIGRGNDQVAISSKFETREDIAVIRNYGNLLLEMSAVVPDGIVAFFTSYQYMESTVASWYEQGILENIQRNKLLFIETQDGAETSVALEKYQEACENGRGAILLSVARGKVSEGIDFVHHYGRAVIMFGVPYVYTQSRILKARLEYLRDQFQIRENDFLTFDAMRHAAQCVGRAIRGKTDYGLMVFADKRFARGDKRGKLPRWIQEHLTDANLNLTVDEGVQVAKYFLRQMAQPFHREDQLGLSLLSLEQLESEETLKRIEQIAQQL
Also: in the data inactive means no Kd found up to 30 µM.

Chain of AP2-associated protein kinase 1 (Q2M2I8 whole entry): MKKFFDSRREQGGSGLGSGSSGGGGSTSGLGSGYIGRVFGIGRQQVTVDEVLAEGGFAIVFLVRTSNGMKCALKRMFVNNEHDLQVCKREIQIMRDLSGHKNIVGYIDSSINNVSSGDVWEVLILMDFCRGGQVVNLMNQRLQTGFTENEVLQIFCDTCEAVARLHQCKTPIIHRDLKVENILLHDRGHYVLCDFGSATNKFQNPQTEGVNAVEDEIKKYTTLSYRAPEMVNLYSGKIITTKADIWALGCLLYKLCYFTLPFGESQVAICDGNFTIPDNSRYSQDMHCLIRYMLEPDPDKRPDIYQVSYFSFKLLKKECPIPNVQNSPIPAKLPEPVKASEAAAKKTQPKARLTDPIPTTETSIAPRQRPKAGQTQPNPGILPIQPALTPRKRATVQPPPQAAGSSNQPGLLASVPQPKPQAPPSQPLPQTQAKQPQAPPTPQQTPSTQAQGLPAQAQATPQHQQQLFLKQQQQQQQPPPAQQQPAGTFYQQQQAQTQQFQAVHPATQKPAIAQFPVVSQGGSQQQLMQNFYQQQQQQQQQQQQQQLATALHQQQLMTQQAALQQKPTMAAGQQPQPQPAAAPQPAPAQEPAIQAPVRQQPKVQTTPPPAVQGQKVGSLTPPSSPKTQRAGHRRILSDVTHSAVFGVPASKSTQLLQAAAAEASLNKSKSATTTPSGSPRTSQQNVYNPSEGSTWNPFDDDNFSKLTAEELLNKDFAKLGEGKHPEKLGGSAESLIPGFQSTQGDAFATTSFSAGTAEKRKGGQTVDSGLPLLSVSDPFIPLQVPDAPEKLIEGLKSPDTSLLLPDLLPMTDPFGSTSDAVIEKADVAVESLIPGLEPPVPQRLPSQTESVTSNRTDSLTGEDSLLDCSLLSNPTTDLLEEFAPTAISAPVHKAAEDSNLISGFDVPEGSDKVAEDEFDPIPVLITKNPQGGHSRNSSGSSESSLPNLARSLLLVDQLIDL

SMILES | Kd [1] | Kd [2] | Kd [3] | Kd [4] | Kd [5] | Kd (Rab-like protein 3) | Kd [6]
C=CC(=O)Nc1cc2c(Nc3ccc(F)c(Cl)c3)ncnc2cc1C#CC(C)(C)N1CCN(C)CC1 [AV-412 FREE BASE] | > 30 µM (inactive) | > 30 µM (inactive) | > 30 µM (inactive) | > 30 µM (inactive) | > 30 µM (inactive) | > 30 µM (inactive) | > 30 µM (inactive)
COc1cc([C@@H]2c3cc4c(cc3[C@H](O)[C@H]3COC(=O)[C@@H]23)OCO4)cc(OC)c1OC [AXL-1717] | > 30 µM (inactive) | > 30 µM (inactive) | > 30 µM (inactive) | > 30 µM (inactive) | > 30 µM (inactive) | > 30 µM (inactive) | > 30 µM (inactive)
Cn1cnc2c(F)c(Nc3ccc(Br)cc3F)c(C(=O)NOCCO)cc21 [BINIMETINIB] | > 30 µM (inactive) | > 30 µM (inactive) | > 30 µM (inactive) | > 30 µM (inactive) | > 30 µM (inactive) | > 30 µM (inactive) | > 30 µM (inactive)
CCn1c(C(=O)N(C2CC2)C2CC2)cc2c3c(ncn3C)c(Nc3cc(C)n(C)n3)nc21 [BMS-911543] | > 30 µM (inactive) | > 30 µM (inactive) | > 30 µM (inactive) | > 30 µM (inactive) | > 30 µM (inactive) | > 30 µM (inactive) | > 30 µM (inactive)
COc1cc2ncnc(Oc3cccc(NC(=O)Nc4cc(C(C)(C)C(F)(F)F)on4)c3)c2cc1OC [CEP-32496] | > 30 µM (inactive) | > 30 µM (inactive) | > 30 µM (inactive) | > 30 µM (inactive) | > 30 µM (inactive) | > 30 µM (inactive) | > 30 µM (inactive)
Cc1cc(Nc2ncc(Cl)c(Nc3ccccc3S(=O)(=O)C(C)C)n2)c(OC(C)C)cc1C1CCNCC1 [CERITINIB] | > 30 µM (inactive) | > 30 µM (inactive) | > 30 µM (inactive) | > 30 µM (inactive) | > 30 µM (inactive) | > 30 µM (inactive) | > 30 µM (inactive)
COCC(=O)NC/C=C/c1ccc2ncnc(Nc3ccc(Oc4ccc(C)nc4)c(C)c3)c2c1 [CP-724714] | > 30 µM (inactive) | > 30 µM (inactive) | > 30 µM (inactive) | > 30 µM (inactive) | > 30 µM (inactive) | > 30 µM (inactive) | > 30 µM (inactive)
C#Cc1cccc(Nc2ncnc3cc(OC)c(OCCCCCCC(=O)NO)cc23)c1 [CUDC-101] | > 30 µM (inactive) | > 30 µM (inactive) | > 30 µM (inactive) | > 30 µM (inactive) | > 30 µM (inactive) | > 30 µM (inactive) | > 30 µM (inactive)
CCS(=O)(=O)N1CCN(c2ccc(Nc3ncc(C(N)=O)c(NC4CC4)n3)cc2)CC1 [Cerdulatinib Hydrochloride] | 0.001 µM (active) | 0.701 µM (active) | > 30 µM (inactive) | > 30 µM (inactive) | > 30 µM (inactive) | > 30 µM (inactive) | > 30 µM (inactive)
Cc1nc2cc(-n3ncc(C(=O)c4cc5ccccc5[nH]4)c3N)ccc2[nH]1 [FGFR INHIBITOR DEBIO 1347] | > 30 µM (inactive) | > 30 µM (inactive) | > 30 µM (inactive) | > 30 µM (inactive) | > 30 µM (inactive) | > 30 µM (inactive) | > 30 µM (inactive)
Cc1cccc(-c2nn3c(c2-c2ccnc4ccc(C(N)=O)cc24)CCC3)n1 [GALUNISERTIB] | > 30 µM (inactive) | > 30 µM (inactive) | 16.1 µM (active) | > 30 µM (inactive) | > 30 µM (inactive) | > 30 µM (inactive) | > 30 µM (inactive)
COc1ccc(S(=O)(=O)N(C(C)=O)c2ccccc2/C=C/c2cc[n+]([O-])cc2)cc1 [HMN-214] | > 30 µM (inactive) | > 30 µM (inactive) | > 30 µM (inactive) | > 30 µM (inactive) | > 30 µM (inactive) | > 30 µM (inactive) | > 30 µM (inactive)
NC1(c2ccc(-c3nc4ccn5c(=O)[nH]nc5c4cc3-c3ccccc3)cc2)CCC1 [MK-2206] | > 30 µM (inactive) | > 30 µM (inactive) | > 30 µM (inactive) | > 30 µM (inactive) | > 30 µM (inactive) | > 30 µM (inactive) | > 30 µM (inactive)
CN(C[C@@H]1COCCO1)S(=O)(=O)Nc1ccc2ccc3ncc(-c4cnn(C)c4)cc3c(=O)c2c1 [MK-2461] | 3.65 µM (active) | > 30 µM (inactive) | > 30 µM (inactive) | > 30 µM (inactive) | > 30 µM (inactive) | > 30 µM (inactive) | > 30 µM (inactive)
Cn1cc(-c2cnc3ccc4ccc(CS(=O)(=O)NCc5ccccn5)cc4c(=O)c3c2)cn1 [MK-8033] | > 30 µM (inactive) | > 30 µM (inactive) | > 30 µM (inactive) | > 30 µM (inactive) | > 30 µM (inactive) | > 30 µM (inactive) | > 30 µM (inactive)
FC(F)(F)c1ccc(/C=C/c2nc(COc3ccc(CCCCn4ccnn4)cc3)co2)cc1 [MUBRITINIB] | > 30 µM (inactive) | > 30 µM (inactive) | > 30 µM (inactive) | > 30 µM (inactive) | > 30 µM (inactive) | > 30 µM (inactive) | > 30 µM (inactive)
COc1ncc(-c2ccc3nccc(-c4ccnnc4)c3c2)cc1NS(=O)(=O)c1ccc(F)cc1F [OMIPALISIB] | > 30 µM (inactive) | > 30 µM (inactive) | > 30 µM (inactive) | > 30 µM (inactive) | > 30 µM (inactive) | > 30 µM (inactive) | > 30 µM (inactive)
